# Test results taken from patent US10519177B2, “Heterocyclic compounds and uses thereof” (Plexxikon Inc., priority 2013, dated 2019).
# Target: BRD4-BD1 (44-164) (Homo sapiens (Human), UniProt O60885)
# Assay: Alphascreen binding assay BRD4-BD1
# Conditions: BRD4(1) H4; read-out: Biochemical activity (IC50 μM) BRD4(1) H4
# Procedure, shortened: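 AlphaScreen signal (nickel acceptor, streptavidin donor beads, 7.5 µg/ml each, read 30 min after addition) reports displacement of biotin-H4 K5/K8/K12/K16-acetyl peptide from His-BRD4 BD1 (44-164) or tandem BD12 (1-477).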
row,SMILES,IC50
1,"Cc1noc(C)c1-c1cnc2c(-c3cnn(C)c3)cn(Cc3ccccc3OC(F)(F)F)c2c1 [P-0194, 3,5-dimethyl-4-[3-(1-methylpyrazol-4-yl)-1-[[2-(trifluoromethoxy)phenyl]methyl]pyrrolo[3,2-b]pyridin-6-yl]isoxazole]",< 1 µM
2,"Cc1noc(C)c1-c1cnc2c(-c3cnn(C)c3)cn(Cc3cccnc3)c2c1 [P-0195, 3,5-dimethyl-4-[3-(1-methylpyrazol-4-yl)-1-(3-pyridylmethyl)pyrrolo[3,2-b]pyridin-6-yl]isoxazole]",< 1 µM
3,"Cc1noc(C)c1-c1cnc2ccn(C(CC#N)C3CCCC3)c2c1 (centres unmarked) [P-0196, 3-cyclopentyl-3-[6-(3,5-dimethylisoxazol-4-yl)pyrrolo[3,2-b]pyridin-1-yl]propanenitrile]",< 1 µM
4,"Cc1noc(C)c1-c1cnc2c(-c3cnn(C)c3)cn(C(CC#N)C3CCCC3)c2c1 (centres unmarked) [P-0197, 3-cyclopentyl-3-[6-(3,5-dimethylisoxazol-4-yl)-3-(1-methylpyrazol-4-yl)pyrrolo[3,2-b]pyridin-1-yl]propanenitrile]",< 1 µM
5,"Cc1noc(C)c1-c1cnc2c(-c3cnn(C)c3)cn(Cc3ccccn3)c2c1 [P-0198, 3,5-dimethyl-4-[3-(1-methylpyrazol-4-yl)-1-(2-pyridylmethyl)pyrrolo[3,2-b]pyridin-6-yl]isoxazole]",< 1 µM
6,"Cc1noc(C)c1-c1cnc2c(-c3cn[nH]c3)cn(C(C)c3ccccc3)c2c1 (centres unmarked) [P-0199, 3,5-dimethyl-4-[1-(1-phenyl-ethyl)-3-(1H-pyrazol-4-yl)pyrrolo[3,2-b]pyridin-6-yl]isoxazole]",< 1 µM
7,"CCn1cc(-c2cn(C(C)c3ccccc3)c3cc(-c4c(C)noc4C)cnc23)cn1 (centres unmarked) [P-0200, 4-[3-(1-ethylpyrazol-4-yl)-1-(1-phenylethyl)pyrrolo[3,2-b]pyridin-6-yl]-3,5-dimethyl-isoxazole]",< 1 µM
8,"C=CCn1cc(-c2cn(C(C)c3ccccc3)c3cc(-c4c(C)noc4C)cnc23)cn1 (centres unmarked) [P-0201, 4-[3-(1-allylpyrazol-4-yl)-1-(1-phenylethyl)pyrrolo[3,2-b]pyridin-6-yl]-3,5-dimethyl-isoxazole]",< 1 µM
9,"COCCn1cc(-c2cn(C(C)c3ccccc3)c3cc(-c4c(C)noc4C)cnc23)cn1 (centres unmarked) [P-0203, 4-[3-[1-(2-methoxyethyl)pyrazol-4-yl]-1-(1-phenyl-ethyl)pyrrolo[3,2-b]pyridin-6-yl]-3,5-dimethyl-isoxazole]",< 1 µM
10,"Cc1noc(C)c1-c1cnc2c(-c3cnn(C4CCOC4)c3)cn(C(C)c3ccccc3)c2c1 (centres unmarked) [P-0204, 3,5-dimethyl-4-[1-(1-phenyl-ethyl)-3-(1-tetrahydrofuran-3-ylpyrazol-4-yl)pyrrolo[3,2-b]pyridin-6-yl]isoxazole]",< 1 µM
11,"Cc1nn(C)cc1-c1cn(C(C)c2ccccc2)c2cc(-c3c(C)noc3C)cnc12 (centres unmarked) [P-0205, 4-[3-(1,3-dimethylpyrazol-4-yl)-1-(1-phenylethyl)pyrrolo[3,2-b]pyridin-6-yl]-3,5-dimethyl-isoxazole]",< 1 µM
12,"Cc1noc(C)c1-c1cnc2c(-c3cnn(C)c3)cn(C(C(=O)O)c3ccccc3)c2c1 (centres unmarked) [P-0206, 2-[6-(3,5-dimethylisoxazol-4-yl)-3-(1-methylpyrazol-4-yl)pyrrolo[3,2-b]pyridin-1-yl]-2-phenyl-acetic acid]",< 1 µM
13,"Cc1noc(C)c1-c1cnc2c(-c3cnn(C)c3)cn(C(C(=O)NC3CC3)c3ccccc3)c2c1 (centres unmarked) [P-0207, N-cyclopropyl-2-[6-(3,5-dimethylisoxazol-4-yl)-3-(1-methylpyrazol-4-yl)pyrrolo[3,2-b]pyridin-1-yl]-2-phenyl-acetamide]",< 1 µM
14,"Cc1noc(C)c1-c1cnc2c(-c3cnn(C)c3)cn(CC3CCC(F)(F)CC3)c2c1 [P-0209, 4-[1-[(4,4-difluorocyclohexyl)methyl]-3-(1-methylpyrazol-4-yl)pyrrolo[3,2-b]pyridin-6-yl]-3,5-dimethyl-isoxazole]",< 1 µM
